{
  "source": "patent US6783541B2",
  "about": "“Methods for inhibiting or suppressing stenosis of arteriovenous access fistulas and grafts” (Miravant Medical Technologies, Inc., priority 2001, dated 2004)",
  "key": {"[1]": {"system": "stenosis in a canine model of prosthetic AV access graft", "assay": "PDT in a canine model of prosthetic AV access graft", "type": "in vivo, female mongrel dogs", "procedure": "The work described below was undertaken to evaluate the effects of application of an embodiment of the method of the present invention on the suppression of stenosis in a canine model of prosthetic AV access graft.\nInitial studies using light-treatment without MV6401 confirmed no effect on the stenosis. Bilateral femoral PTFE AV access grafts were implanted in four female mongrel dogs. MV6401 (2 mg/kg, IV) was given one hour prior to the operation, and PDT was administered using an endolumenal non-thermal balloon catheter light source immediately after AV access graft placement. The contralateral side received a sham balloon treatment without light activation. The animals were sacrificed four weeks after the treatment, at which time the grafts were harvested, sectioned and examined by histology. Venous anastomotic sites were graded by an individual blinded to the treatment parameters and graded on a categorical scale (0-5) of lesion progression. Thickness of the stenotic lesion was determined using computer morphometry."}, "[2]": {"assay": "Preliminary uptake studies by HPLC and fluorescence microscopy"}},
  "data": [
    {"smiles": "C=Cc1c(C)c2[n]3c1=CC1=NC(=Cc4c(C)c5c([n]4[In]3[Cl])C(=C3N=C(C=2)[C@@H](C)[C@@H]3CCC(=O)OC)CC5=O)C(CC)=C1C", "note": "[MV6401]", "values": [
      {"measurement": "graft fibrosis grade at venous anastomotic site (categorical scale 0-5)", "setting": "[1]; MV6401 2 mg/kg IV 1 h before operation, endolumenal balloon light, 4 weeks after treatment, sham side without light 2.25±0.08, P=0.02", "result": "1.13±0.15"},
      {"measurement": "thickness of the stenotic lesions at the venous anastomosis", "setting": "[1]; MV6401 2 mg/kg IV plus light, 4 weeks after PDT, computer morphometry, sham side without light 1.51±0.11 mm, P=0.006", "result": "0.49±0.06", "unit": "mm"},
      {"measurement": "long term detrimental effects", "setting": "[1]; PDT dose sufficient to substantially deplete cell population in vessel wall", "result": "no detrimental long term effects noted"},
      {"measurement": "acellularity in the vessel wall", "setting": "[1]; PDT dose used (MV6401 2 mg/kg IV plus light)", "result": "substantial acellularity in the vessel wall"},
      {"measurement": "AV access graft patency", "setting": "[1]; four weeks after treatment", "result": "patent and fully functioning"},
      {"measurement": "incorporation of drug into tissue", "setting": "[2]", "result": "incorporation into stenotic lesions and surrounding vessel wall"}
    ]}
  ]
}
